Data taken from patent US7101902B2, “2-guanidinylimidazolidinedione compounds and methods of making and using thereof” (The United States of America as represented by the …, priority 2003, dated 2006).
Where “and” joins values, the source holds several entries; their conditions need not be identical. Equal entries are not always repeated. Entries after “also recorded” stand apart in the source; their conditions may differ.

How the values were obtained:
[1] = tested on: Plasmodium yoelii (17×); assay: Sporozoite induced test in mouse (causal prophylactic activity); format: in vivo; conditions: sporozoite challenged CD-1 mice; single dose 4 hours before inoculation; oral administration
Method: The causal prophylactic antimalarial activity of the new carbamate derivatives were assessed in a sporozoites challenged mouse model according to the following protocol and the results are shown in Table 4 and Table 5.
Each compound was ground with a mortar and pestle and suspended in 0.5% hydroxyethylcellulose and 0.1% Tween 80 for compounds to be administered PO and those given SC were suspended in peanut oil. Each compound is prepared at 3 different dose levels.
Compounds were administered either PO or SC to mice once 4 hours before inoculation of sporozoites.
Four-week-old male CD-1 mice, purchased from Charles River and weighing about 16 to about 17 grams were placed 5 per cage and allowed to acclimate for 4 days before being treated and then inoculated with sporozoites. They were fed food and water ad-lib and maintained at 76° F. with 12 hour light and 12 hour darkness. The cages and water bottles were changed biweekly. The mice are weighed on Days 0, 3 and 6 then biweekly when blood films were taken.
Plasmodium yoelii (17×) was used to infect mice that will be used to infect the mosquitoes.
Mice were given a single dose of test compound 4 hours before being inoculated intraperitoneally with 2.5×10^5 sporozoites of Plasmodium yoelii on Day 0. Whole body weights were taken on Day 0 and Day 6 then twice a week for 31 days. A blood film was taken on Day 5 and then twice a week for 31 days. Mice loosing greater than about 20% of their body weight were sacrificed. All mice alive on Day 31 with no parasites in a blood film were considered cured. Donor mice used to infect the mosquitoes were infected with 2.5×10^4 parasitized erythrocytes. The mosquitoes were allowed to feed on these malaria-infected mice on Day 4 of their infection when the parasitemia was low.
A compound was considered active against either the sporozoite or the EE stage if no parasites were found in the blood films taken on Day 5 or on subsequent blood films taken weekly for 31 days.
Mice alive on Day 31 with no parasites found in any blood films were considered cured.

[2] = tested on: P. cynomolgi sporozoites; assay: Oral causal prophylactic assay in Rhesus monkey (compound 3 IM; 4b and 3c PO); format: in vivo, Plasmodium cynomolgi; conditions: per monkey
Method: To test the causal prophylactic intramuscular potency of the purified isomer of compound 3 and oral potency of two carbamate derivatives of 2-guanidinylimidazolidinedione (4b and 3c) the following assay was conducted.
Fourteen rhesus monkeys were issued.
A donor monkey was inoculated intravenously with 1.3 ml, freshly-thawed frozen infected red blood cell (DA310). When the monkey developed gametocytemia, mosquito feedings were conducted on days 15 and 16 after inoculation. The donor monkey was treated with intramuscular chloroquine hydrochloride (CQ) 10 mg/kg, once a day after the second mosquito feeding and continued for 6 days.
On day 0 of the beginning of the assay, each of the 14 monkeys was inoculated intravenously with 1-ml inoculum of suspension containing about 1.0×10^6 P. cynomolgi sporozoites harvested from Anopheles dirus mosquitoes' salivary glands previously fed on the donor monkey.
All monkeys received treatment on days −1, 0 and 1. The control monkeys (Group 1) received HECT orally and the experimental animals received testing compound intramuscularly (Groups 2 and 3) or orally (Groups 4 to 7).

[3] = Solubility and characteristics of the compounds in the dosing vehicle; format: physicochemical; conditions: vehicle DMSO
[4] = tested on: Plasmodium falciparum; conditions: cited from earlier work
[5] = tested on: P. vivax; conditions: cited from earlier work

| SMILES | Minimum Protective Dose Against P. yoelii [1] [mg/kg] | Day of Parasitemia ([2]; 10 mg/kg IM) [days] | Result ([2]; 10 mg/kg IM, 10 mg/kg) | Day of Parasitemia ([2]; 30 mg/kg IM, 30 mg/kg) | Result (delay the parasitemia) ([2]; 30 mg/kg IM, 30 mg/kg) | Sediment ([3]; dosage 10 mg/kg) | Solubility ([3]; dosage 10 mg/kg) | Supernatant ([3]; dosage 10 mg/kg) | Sediment ([3]; dosage 30 mg/kg) | Solubility ([3]; dosage 30 mg/kg) | Supernatant ([3]; dosage 30 mg/kg) | melting point | Activity against primary exoerythrocytic forms [4] | Activity against primary exoerythrocytic forms [5] |
| --- | --- | --- | --- | --- | --- | --- | --- | --- | --- | --- | --- | --- | --- | --- |
| CC(C)N1C(=O)C(=O)N=C1NC(=N)Nc1ccc(Cl)c(Cl)c1 [Compound 3, N-(3,4-dichlorophenyl)-N′-(1-isopropyl-4,5-dioxoimidazolidin-2-ylidene)guanidine] | >160 | 8 | not protected; also recorded: No activity | 15 days and 20 days | 7 days and 12 days and did not completely protect the monkeys from malaria | None | Good | Yellow clear | None | Moderate | Yellow turbid | 230 °C and 233 °C | – | – |
| CC(C)NC(=N)NC(=N)Nc1ccc(Cl)c(Cl)c1 [chlorproguanil] | – | – | – | – | – | – | – | – | – | – | – | – | highly active | highly active |
